Structures can show the parent of a compound that is named as a salt.
How the values were obtained:
[1] = biological target: CDK1/cyclin B; test: radiometric protein kinase assay; type: biochemical, starfish; settings: for IC50: 15 μmol/L ATP; for Residual enzyme activity CDK1/cyclin B: 10 µM concentration, ± SEM
[2] = biological target: T1, CDK2/cyclin A (Homo sapiens, UniProt P24941); test: radiometric protein kinase assay; type: biochemical; settings: for IC50: 15 μmol/L ATP, read-out: IC50 CDK2/cyclinA; for Residual enzyme activity CDK2/cyclin A: 10 µM concentration, ± SEM
T1 construct: made in house

[3] = biological target: T2, CDK5/p25 (Homo sapiens, UniProt Q00535); test: radiometric protein kinase assay; type: biochemical; settings: for IC50: 15 μmol/L ATP; for Residual enzyme activity CDK5/p25: 10 µM concentration, ± SEM
T2 construct: made in house
T2 sequence (Q00535 whole entry): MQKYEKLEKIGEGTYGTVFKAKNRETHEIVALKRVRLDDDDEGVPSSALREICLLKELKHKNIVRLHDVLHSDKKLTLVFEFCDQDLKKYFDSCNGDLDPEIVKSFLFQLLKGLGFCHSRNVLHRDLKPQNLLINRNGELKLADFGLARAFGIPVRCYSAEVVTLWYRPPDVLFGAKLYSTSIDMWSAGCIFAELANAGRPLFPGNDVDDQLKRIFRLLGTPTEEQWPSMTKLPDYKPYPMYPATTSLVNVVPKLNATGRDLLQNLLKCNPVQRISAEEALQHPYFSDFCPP
T2 sequence (Q15078 99-307 partner limits assumed): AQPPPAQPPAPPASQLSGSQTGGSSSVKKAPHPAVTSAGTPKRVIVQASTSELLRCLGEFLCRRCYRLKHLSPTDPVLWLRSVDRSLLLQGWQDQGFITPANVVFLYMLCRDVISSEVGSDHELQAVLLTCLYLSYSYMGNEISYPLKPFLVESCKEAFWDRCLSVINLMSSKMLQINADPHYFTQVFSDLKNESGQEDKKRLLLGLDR

[4] = biological target: CK1δ/ε; test: radiometric protein kinase assay; type: biochemical, porcine; settings: for IC50: 15 μmol/L ATP, read-out: IC50 CK1; for Residual enzyme activity CK1: 10 µM concentration, ± SEM
[5] = biological target: DYRK1A (Homo sapiens, UniProt Q13627); test: radiometric protein kinase assay; type: biochemical; settings: for IC50: 15 μmol/L ATP, read-out: IC50 DYRK 1A; for Residual enzyme activity DYRK 1A: 10 µM concentration, ± SEM
[6] = biological target: GSK-3; test: radiometric protein kinase assay; type: biochemical, porcine; settings: for IC50: 15 μmol/L ATP, read-out: IC50 GSK3; for Residual enzyme activity GSK3: 10 µM concentration, ± SEM
[7] = biological target: CDK9/cyclin T (Homo sapiens, UniProt P50750); test: radiometric protein kinase assay; settings: for Residual enzyme activity CDK9/cyclin T: 10 µM concentration, ± SEM
Sequence of CDK9/cyclin T (P50750 whole entry): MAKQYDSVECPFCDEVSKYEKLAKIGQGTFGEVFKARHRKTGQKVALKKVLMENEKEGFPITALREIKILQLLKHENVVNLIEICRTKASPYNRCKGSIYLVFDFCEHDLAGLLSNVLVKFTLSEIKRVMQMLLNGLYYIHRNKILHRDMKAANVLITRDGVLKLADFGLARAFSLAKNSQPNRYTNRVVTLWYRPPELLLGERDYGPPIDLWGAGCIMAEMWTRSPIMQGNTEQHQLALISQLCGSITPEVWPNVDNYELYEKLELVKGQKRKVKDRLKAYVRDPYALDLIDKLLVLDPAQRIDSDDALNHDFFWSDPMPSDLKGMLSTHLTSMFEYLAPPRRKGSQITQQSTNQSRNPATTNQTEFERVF
Sequence of CDK9/cyclin T (O60563 whole entry partner): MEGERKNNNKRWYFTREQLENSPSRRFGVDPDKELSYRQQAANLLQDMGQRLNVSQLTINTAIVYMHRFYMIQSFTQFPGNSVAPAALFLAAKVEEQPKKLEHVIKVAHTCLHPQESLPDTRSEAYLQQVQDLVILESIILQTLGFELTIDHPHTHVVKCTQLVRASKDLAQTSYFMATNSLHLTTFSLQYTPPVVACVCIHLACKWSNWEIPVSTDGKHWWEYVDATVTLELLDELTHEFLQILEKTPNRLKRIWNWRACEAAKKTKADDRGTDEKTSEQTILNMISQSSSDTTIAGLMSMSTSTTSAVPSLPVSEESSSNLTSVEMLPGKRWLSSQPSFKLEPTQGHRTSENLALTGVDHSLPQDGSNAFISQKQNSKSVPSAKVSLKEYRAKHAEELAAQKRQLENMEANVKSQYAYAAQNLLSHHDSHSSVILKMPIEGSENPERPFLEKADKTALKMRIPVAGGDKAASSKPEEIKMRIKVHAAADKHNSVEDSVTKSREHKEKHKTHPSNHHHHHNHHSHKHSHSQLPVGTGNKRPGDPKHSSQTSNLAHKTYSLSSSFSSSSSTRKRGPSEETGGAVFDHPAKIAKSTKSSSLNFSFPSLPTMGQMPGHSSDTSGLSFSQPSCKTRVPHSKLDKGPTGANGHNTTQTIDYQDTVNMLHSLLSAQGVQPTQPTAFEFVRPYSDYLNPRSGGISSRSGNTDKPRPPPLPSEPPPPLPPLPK
Method: (§1) Buffers. Buffer A: 10 mM MgCl2, 1 mM EGTA, 1 mM DTT, 25 mM Tris-HCl pH 7.5, 50 μg heparin/mL. Buffer C: 60 mM β-glycerophosphate, 15 mM p-nitrophenylphosphate, 25 mM MOPS (pH 7.2), 15 mM EGTA, 15 mM MgCl2, 1 mM DTT, 1 mM sodium vanadate, 1 mM phenylphosphate.
(§2) Kinase activities were assayed in buffer A or C at 30°C at a final ATP concentration of 15 μmol/L. Blank values were subtracted and activities were expressed in percent of the maximal activity, i.e. in the absence of inhibitors. Controls were performed with appropriate dilutions of DMSO.
(§3) Their kinase activity was assayed in buffer A, with 1 mg histone H1/mL, in the presence of 15 μmol/L [γ-33P] ATP (3,000 Ci/mmol; 10 mCi/mL) in a final volume of 30 μL. After 30 min incubation at 30°C, the reaction was stopped by harvesting onto P81 phosphocellulose supernatant (Whatman) using a FilterMate harvester (Packard) and washing in 1% phosphoric acid. Scintillation fluid was added and the radioactivity measured in a Packard counter.
(§4) All data points for construction of dose response curves were recorded in triplicate.

[8] = biological target: CLK1 (Mus musculus, UniProt P22518); test: radiometric protein kinase assay; settings: for Residual enzyme activity CLK 1: 10 µM concentration, ± SEM
Sequence of CLK1 (P22518 whole entry): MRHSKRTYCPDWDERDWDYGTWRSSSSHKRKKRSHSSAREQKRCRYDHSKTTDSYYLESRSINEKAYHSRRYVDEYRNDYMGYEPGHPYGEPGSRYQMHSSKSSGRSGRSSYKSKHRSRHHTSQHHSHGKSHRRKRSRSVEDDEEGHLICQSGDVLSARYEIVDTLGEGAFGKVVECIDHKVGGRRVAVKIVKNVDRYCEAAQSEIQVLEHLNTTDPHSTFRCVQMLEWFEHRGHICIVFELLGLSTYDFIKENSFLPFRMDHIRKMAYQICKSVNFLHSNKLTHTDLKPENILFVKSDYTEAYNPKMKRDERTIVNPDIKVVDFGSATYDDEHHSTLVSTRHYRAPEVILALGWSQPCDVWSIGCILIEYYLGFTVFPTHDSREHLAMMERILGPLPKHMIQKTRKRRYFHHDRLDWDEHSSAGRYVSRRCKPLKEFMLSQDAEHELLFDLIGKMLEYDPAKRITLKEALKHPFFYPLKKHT
Method: Buffer A: 10 mM MgCl2, 1 mM EGTA, 1 mM DTT, 25 mM Tris-HCl pH 7.5, 50 μg heparin/mL. Buffer C: 60 mM β-glycerophosphate, 15 mM p-nitrophenylphosphate, 25 mM MOPS (pH 7.2), 15 mM EGTA, 15 mM MgCl2, 1 mM DTT, 1 mM sodium vanadate, 1 mM phenylphosphate.
Controls were performed with appropriate dilutions of DMSO. The GS-1, CKS, CDK7/9 tide and RS peptide substrates were obtained from Proteogenix (Oberhausbergen, France).
CDK1/cyclin B (M phase starfish oocytes, native), CDK2/cyclin A and CDK5/p25 (human, recombinant) were prepared as previously described [33]. […] ATP (3,000 Ci/mmol; 10 mCi/mL) in a final volume of 30 μL. After 30 min incubation at 30°C, the reaction was stopped by harvesting onto P81 phosphocellulose supernatant (Whatman) using a FilterMate harvester (Packard) and washing in 1% phosphoric acid. Scintillation fluid was added and the radioactivity measured in a Packard counter.
as §4

[9] = biological target: DYRK1B (Homo sapiens, UniProt Q9Y463); test: radiometric protein kinase assay; type: biochemical; settings: for Residual enzyme activity DYRK 1B: 10 µM concentration, ± SEM
Sequence of DYRK1B (Q9Y463 whole entry): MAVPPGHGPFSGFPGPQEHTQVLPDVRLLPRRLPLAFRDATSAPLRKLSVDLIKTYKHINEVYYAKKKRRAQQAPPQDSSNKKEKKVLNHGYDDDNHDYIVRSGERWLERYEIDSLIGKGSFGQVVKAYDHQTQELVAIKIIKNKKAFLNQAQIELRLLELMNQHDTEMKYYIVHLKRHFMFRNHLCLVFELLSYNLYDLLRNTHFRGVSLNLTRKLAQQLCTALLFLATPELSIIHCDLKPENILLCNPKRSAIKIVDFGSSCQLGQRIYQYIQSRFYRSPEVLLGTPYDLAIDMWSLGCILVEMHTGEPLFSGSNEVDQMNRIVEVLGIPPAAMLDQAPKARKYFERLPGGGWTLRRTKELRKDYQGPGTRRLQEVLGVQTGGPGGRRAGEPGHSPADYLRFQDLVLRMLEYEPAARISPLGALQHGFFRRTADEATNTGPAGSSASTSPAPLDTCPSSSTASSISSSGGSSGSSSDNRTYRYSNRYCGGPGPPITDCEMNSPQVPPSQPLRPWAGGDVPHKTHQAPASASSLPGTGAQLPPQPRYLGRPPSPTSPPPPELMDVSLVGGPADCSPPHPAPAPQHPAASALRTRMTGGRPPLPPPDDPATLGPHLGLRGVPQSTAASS

[10] = biological target: T3, DYRK2 (Homo sapiens, UniProt Q92630); test: radiometric protein kinase assay; type: biochemical; settings: for Residual enzyme activity DYRK 2: 10 µM concentration, ± SEM
T3 sequence (Q92630 1-601): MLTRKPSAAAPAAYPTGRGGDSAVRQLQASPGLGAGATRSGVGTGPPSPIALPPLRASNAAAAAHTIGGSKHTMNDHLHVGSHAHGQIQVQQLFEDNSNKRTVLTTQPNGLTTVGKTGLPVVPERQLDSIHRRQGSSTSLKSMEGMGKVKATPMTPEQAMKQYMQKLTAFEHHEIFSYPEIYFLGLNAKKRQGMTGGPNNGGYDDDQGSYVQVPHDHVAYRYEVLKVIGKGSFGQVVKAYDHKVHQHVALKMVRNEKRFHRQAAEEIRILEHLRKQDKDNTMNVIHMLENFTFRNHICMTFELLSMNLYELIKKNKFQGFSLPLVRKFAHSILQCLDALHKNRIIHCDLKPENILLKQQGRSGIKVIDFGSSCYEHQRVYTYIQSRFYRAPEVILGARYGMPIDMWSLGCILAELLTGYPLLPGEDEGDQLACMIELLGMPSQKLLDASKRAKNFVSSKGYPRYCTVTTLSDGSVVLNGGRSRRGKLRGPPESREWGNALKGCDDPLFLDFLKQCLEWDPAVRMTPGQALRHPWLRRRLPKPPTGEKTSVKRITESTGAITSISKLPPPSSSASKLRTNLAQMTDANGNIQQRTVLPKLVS

[11] = biological target: T4, DYRK3 (Homo sapiens, UniProt O43781); test: radiometric protein kinase assay; type: biochemical; settings: for Residual enzyme activity DYRK 3: 10 µM concentration, ± SEM
T4 sequence (O43781 1-588): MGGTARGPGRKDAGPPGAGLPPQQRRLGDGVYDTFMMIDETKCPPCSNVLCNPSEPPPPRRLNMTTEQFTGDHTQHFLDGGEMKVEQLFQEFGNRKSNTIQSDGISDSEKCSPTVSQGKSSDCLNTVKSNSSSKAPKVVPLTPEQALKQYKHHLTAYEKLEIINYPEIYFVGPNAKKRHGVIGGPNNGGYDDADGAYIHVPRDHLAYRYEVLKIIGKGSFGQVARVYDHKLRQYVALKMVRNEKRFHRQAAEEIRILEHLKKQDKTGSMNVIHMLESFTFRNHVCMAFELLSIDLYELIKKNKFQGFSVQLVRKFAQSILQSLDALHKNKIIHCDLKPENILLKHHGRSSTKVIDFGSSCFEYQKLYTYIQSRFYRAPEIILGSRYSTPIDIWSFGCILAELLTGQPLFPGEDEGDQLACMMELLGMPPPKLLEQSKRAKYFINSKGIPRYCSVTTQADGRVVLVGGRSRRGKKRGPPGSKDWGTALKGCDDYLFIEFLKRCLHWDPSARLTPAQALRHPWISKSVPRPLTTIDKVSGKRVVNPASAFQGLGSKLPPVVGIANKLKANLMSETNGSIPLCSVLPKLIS

[12] = biological target: CLK2 (Mus musculus, UniProt O35491); test: radiometric protein kinase assay; settings: for Residual enzyme activity CLK 2: 10 µM concentration, ± SEM
Sequence of CLK2 (O35491 whole entry): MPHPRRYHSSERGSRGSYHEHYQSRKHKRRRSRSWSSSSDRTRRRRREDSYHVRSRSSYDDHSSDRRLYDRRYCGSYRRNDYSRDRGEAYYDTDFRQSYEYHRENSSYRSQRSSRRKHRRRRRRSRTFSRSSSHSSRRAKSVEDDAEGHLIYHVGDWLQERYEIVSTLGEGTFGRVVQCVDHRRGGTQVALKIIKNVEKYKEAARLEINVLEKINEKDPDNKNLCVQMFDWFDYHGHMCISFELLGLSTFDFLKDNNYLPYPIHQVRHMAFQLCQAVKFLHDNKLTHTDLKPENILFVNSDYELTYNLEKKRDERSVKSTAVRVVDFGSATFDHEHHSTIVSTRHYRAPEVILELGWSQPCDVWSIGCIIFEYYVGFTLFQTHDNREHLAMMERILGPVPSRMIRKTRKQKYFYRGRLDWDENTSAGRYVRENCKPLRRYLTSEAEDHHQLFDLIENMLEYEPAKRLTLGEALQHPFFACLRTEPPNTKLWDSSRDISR
Method: as §1, §2, §3, §4

[13] = biological target: CLK3 (Mus musculus, UniProt O35492); test: radiometric protein kinase assay; settings: for Residual enzyme activity CLK 3: 10 µM concentration, ± SEM
Sequence of CLK3 (O35492 whole entry): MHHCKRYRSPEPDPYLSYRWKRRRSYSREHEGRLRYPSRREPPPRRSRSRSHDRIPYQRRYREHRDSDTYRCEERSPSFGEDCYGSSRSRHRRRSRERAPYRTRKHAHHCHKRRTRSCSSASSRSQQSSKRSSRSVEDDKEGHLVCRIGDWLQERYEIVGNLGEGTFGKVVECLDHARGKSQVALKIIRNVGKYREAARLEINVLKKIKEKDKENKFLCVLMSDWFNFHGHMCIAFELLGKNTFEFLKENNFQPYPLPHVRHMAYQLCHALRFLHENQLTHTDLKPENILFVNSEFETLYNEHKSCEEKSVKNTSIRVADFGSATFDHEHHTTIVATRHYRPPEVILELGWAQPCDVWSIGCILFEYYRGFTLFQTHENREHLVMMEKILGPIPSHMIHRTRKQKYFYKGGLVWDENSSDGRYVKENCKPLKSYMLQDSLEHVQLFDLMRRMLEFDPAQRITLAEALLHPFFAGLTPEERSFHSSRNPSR
Method: as §1, §2, §3, §4

[14] = biological target: CLK4 (Mus musculus, UniProt O35493); test: radiometric protein kinase assay; settings: for Residual enzyme activity CLK 4: 10 µM concentration, ± SEM
Sequence of CLK4 (O35493 whole entry): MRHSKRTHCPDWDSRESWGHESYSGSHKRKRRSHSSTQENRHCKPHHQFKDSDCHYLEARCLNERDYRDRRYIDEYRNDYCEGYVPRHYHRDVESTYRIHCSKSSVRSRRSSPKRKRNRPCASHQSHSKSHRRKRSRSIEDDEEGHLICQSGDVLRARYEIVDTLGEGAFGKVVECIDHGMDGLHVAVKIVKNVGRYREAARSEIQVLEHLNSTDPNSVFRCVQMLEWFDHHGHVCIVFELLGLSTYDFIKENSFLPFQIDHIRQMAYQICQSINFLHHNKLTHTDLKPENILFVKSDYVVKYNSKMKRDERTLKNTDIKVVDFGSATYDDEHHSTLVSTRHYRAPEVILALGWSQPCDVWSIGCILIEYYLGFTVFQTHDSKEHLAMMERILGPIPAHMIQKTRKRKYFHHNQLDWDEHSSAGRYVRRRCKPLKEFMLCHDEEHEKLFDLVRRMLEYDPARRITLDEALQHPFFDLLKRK
Method: as §1, §2, §3, §4

O=C1NCc2ccc3c(-c4ccccc4)c[nH]c3c21 (as salt: sodium) [8a, 3-Phenyl-6,7-dihydropyrrolo[3,4-g]indol-8(1H)-one]
melting point: 294 to 295 °C

O=C1NCc2ccc3c(-c4ccc(Cl)cc4)c[nH]c3c21 (as salt: sodium) [8d, 3-(4-Chlorophenyl)-6,7-dihydropyrrolo[3,4-g]indol-8(1H)-one]
melting point: 255 to 257 °C

O=C1NCc2ccc3c(-c4ccc(Cl)c(Cl)c4)c[nH]c3c21 (as salt: sodium) [8e, 3-(3,4-Dichlorophenyl)-6,7-dihydropyrrolo[3,4-g]indol-8(1H)-one]
melting point: 258 to 259 °C

Cc1cccc(-c2c[nH]c3c4c(ccc23)CNC4=O)c1 (as salt: sodium) [8i, 3-(3-Methylphenyl)-6,7-dihydropyrrolo[3,4-g]indol-8(1H)-one]
melting point: 231 to 232 °C

Cc1[nH]c2c3c(ccc2c1-c1ccccc1)CNC3=O (as salt: sodium) [8k, 2-Methyl-3-phenyl-6,7-dihydropyrrolo[3,4-g]indol-8(1H)-one]
melting point: 245 to 247 °C

CCc1[nH]c2c3c(ccc2c1-c1ccccc1)CNC3=O (as salt: sodium) [8l, 2-Ethyl-3-phenyl-6,7-dihydropyrrolo[3,4-g]indol-8(1H)-one]
melting point: 165 to 170 °C

O=C1NCc2c(Br)cc3c(-c4ccccc4)c[nH]c3c21 (as salt: sodium) [12a, 5-Bromo-3-phenyl-6,7-dihydropyrrolo[3,4-g]indol-8(1H)-one]
melting point: 226 to 227 °C

CN1Cc2ccc3c(-c4ccccc4)c[nH]c3c2C1=O (as salt: sodium) [12d, 7-Methyl-3-phenyl-6,7-dihydropyrrolo[3,4-g]indol-8(1H)-one]
melting point: 265 to 267 °C

O=C1NCc2ccc3c(-c4ccccc4Cl)c[nH]c3c21 [8b, 3-(2-Chlorophenyl)-6,7-dihydropyrrolo[3,4-g]indol-8(1H)-one]
IC50 [1]: > 10 µM
IC50 [2]: > 10 µM
IC50 [3]: > 10 µM
IC50 [4]: > 10 µM
IC50 [5]: 1.1 µM
IC50 [6]: > 10 µM
melting point: 234 to 235 °C
IC50 [7]: > 10 µM
IC50 [8]: 0.14 µM

CCn1cc(-c2ccccc2)c2ccc3c(c21)C(=O)NC3 [15b, 1-Ethyl-3-phenyl-6,7-dihydropyrrolo[3,4-g]indol-8(1H)-one]
IC50 [1]: > 10 µM
IC50 [2]: > 10 µM
IC50 [3]: > 10 µM
IC50 [4]: > 10 µM
IC50 [5]: 3.9 µM
IC50 [6]: > 10 µM
melting point: 198 to 200 °C
IC50 [7]: > 10 µM
IC50 [8]: 0.38 µM

Cc1c(-c2ccccc2)[nH]c2c3c(ccc12)CNC3=O [S18c]
Residual enzyme activity CDK1/cyclin B [1]: 77±26%
Residual enzyme activity CDK2/cyclin A [2]: 109±8%
Residual enzyme activity CDK5/p25 [3]: 105±11%
Residual enzyme activity CK1 [4]: 57±5%
Residual enzyme activity DYRK 1A [5]: 58±7%
Residual enzyme activity DYRK 1B [9]: 50±7%
Residual enzyme activity DYRK 2 [10]: 57±25%
Residual enzyme activity DYRK 3 [11]: 91±17%
Residual enzyme activity GSK3 [6]: 112±2%
Residual enzyme activity CDK9/cyclin T [7]: 89±6%
Residual enzyme activity CLK 1 [8]: 29±4%
Residual enzyme activity CLK 2 [12]: 30±1%
Residual enzyme activity CLK 3 [13]: 93±9%
Residual enzyme activity CLK 4 [14]: 10±0%

CCc1c(-c2ccccc2)[nH]c2c3c(ccc12)CNC3=O [S18d]
Residual enzyme activity CDK1/cyclin B [1]: 109±30%
Residual enzyme activity CDK2/cyclin A [2]: 104±2%
Residual enzyme activity CDK5/p25 [3]: 112±11%
Residual enzyme activity CK1 [4]: 86±3%
Residual enzyme activity DYRK 1A [5]: 74±14%
Residual enzyme activity DYRK 1B [9]: 65±8%
Residual enzyme activity DYRK 2 [10]: 50±6%
Residual enzyme activity DYRK 3 [11]: 87±5%
Residual enzyme activity GSK3 [6]: 111±7%
Residual enzyme activity CDK9/cyclin T [7]: 100±10%
Residual enzyme activity CLK 1 [8]: 66±3%
Residual enzyme activity CLK 2 [12]: 66±5%
Residual enzyme activity CLK 3 [13]: 110±16%
Residual enzyme activity CLK 4 [14]: 38±3%

Cc1ccc(-c2[nH]c3c4c(ccc3c2C)CNC4=O)cc1 [S18e]
Residual enzyme activity CDK1/cyclin B [1]: 100±20%
Residual enzyme activity CDK2/cyclin A [2]: 102±9%
Residual enzyme activity CDK5/p25 [3]: 114±11%
Residual enzyme activity CK1 [4]: 84±7%
Residual enzyme activity DYRK 1A [5]: 99±16%
Residual enzyme activity DYRK 1B [9]: 85±7%
Residual enzyme activity DYRK 2 [10]: 75±11%
Residual enzyme activity DYRK 3 [11]: 92±9%
Residual enzyme activity GSK3 [6]: 120±31%
Residual enzyme activity CDK9/cyclin T [7]: 101±3%
Residual enzyme activity CLK 1 [8]: 105±12%
Residual enzyme activity CLK 2 [12]: 77±6%
Residual enzyme activity CLK 3 [13]: 105±10%
Residual enzyme activity CLK 4 [14]: 64±9%

Cc1[nH]c2c3c(ccc2c1C)C(=O)NC3=O [S19]
Residual enzyme activity CDK1/cyclin B [1]: 81±27%
Residual enzyme activity CDK2/cyclin A [2]: 108±8%
Residual enzyme activity CDK5/p25 [3]: 94±4%
Residual enzyme activity CK1 [4]: 65±5%
Residual enzyme activity DYRK 1A [5]: 41±8%
Residual enzyme activity DYRK 1B [9]: 39±5%
Residual enzyme activity DYRK 2 [10]: 20±5%
Residual enzyme activity DYRK 3 [11]: 57±3%
Residual enzyme activity GSK3 [6]: 51±5%
Residual enzyme activity CDK9/cyclin T [7]: 90±5%
Residual enzyme activity CLK 1 [8]: 52±10%
Residual enzyme activity CLK 2 [12]: 33±7%
Residual enzyme activity CLK 3 [13]: 91±11%
Residual enzyme activity CLK 4 [14]: 21±1%

O=C1NCc2ccc3c(-c4ccccc4)c(Br)[nH]c3c21 [compound 16, 2-Bromo-3-phenyl-6,7-dihydropyrrolo[3,4-g]indol-8(1H)-one]
IC50 [1]: > 10 µM
IC50 [2]: > 10 µM
IC50 [3]: > 10 µM
IC50 [4]: > 10 µM
IC50 [5]: 1.9 µM
IC50 ([9]; 15 μmol/L ATP, read-out: IC50 DYRK 1B): 1.3 µM
IC50 ([10]; 15 μmol/L ATP, read-out: IC50 DYRK 2): 1.8 µM
IC50 ([11]; 15 μmol/L ATP, read-out: IC50 DYRK 3): 3.9 µM
IC50 [6]: > 10 µM
IC50 [7]: > 10 µM
IC50 [8]: 0.11 µM
IC50 [12]: 0.11 µM
IC50 [13]: 2.8 µM
IC50 [14]: 0.029 µM
